The results in this text go back to US20150118229A1, “JAK1 SELECTIVE INHIBITOR AND USES THEREOF” (ABBVIE INC., priority 2013, published 2015).

For assay [1], the system named is adjuvant-induced arthritis (paw swelling, bone erosion). As to the kind of experiment: Adjuvant-induced arthritis (AIA) in Lewis rats. The class given is in vivo. As for the experimental part:
The inflammation appears in the contra-lateral (left) hind paw seven days after the initial immunization. […] Rats are lightly anesthetized with an inhalant anesthetic (isoflurane) and the contra-lateral (left) hind paw is dipped into the plethysmograph and the paw volume is recorded. The rats are scored every other day up to day 17 after immunization. […] Bone volume and density is determined for a 360 μm (200 slice) vertical section encompassing the tarsal section of the paw. […] Drug exposure is determined in the plasma using LC/MS.

The test system of assay [2] is peripheral NK cell counts. As to the kind of experiment: Peripheral NK cell counts in healthy rats. The class given is in vivo, rat. Conditions: rat. The text has this: The correlation of this effect with ex vivo cytokine signaling inhibition is shown in the right panel of FIG. 6. These measurements correlated well, confirming the Jak dependency of the NK cell count endpoint.
To establish the relationship between changes in NK cell counts and nonclinical efficacy, the changes in NK cell counts were compared with decreases in rat AIA disease activity per unit exposure.

Turning to `C[C@@H]1CCN(C(=O)CC#N)C[C@@H]1N(C)c1ncnc2[nH]ccc12` [Tofacitinib, reference compound], the “efficacious exposure (AUC60), PK/PD modeling” value in assay [1] (AIA rats, about 60% inhibition of paw swelling) was around 300 ng·h/mL. For the same compound, in assay [1] (oral bid, last day of study), the “AUC60 (60% inhibition of paw swelling), total AUC0-12” value came to 392 ± 121 ng·h/mL and the “AUC60, fraction unbound AUC0-12” value came out at 300 ± 98 ng·h/mL. Further, the “Paw Swelling (exposure)” value in assay [1] (rat AIA) was found to be 514 ng·h/mL. Further, the “inhibition of Paw Swelling reached at about the same level of reticulocyte inhibition” value in assay [1] (rat AIA vs reticulocyte deployment) is recorded as “about 60%”. In assay [2], the “NK Counts (exposure)” value stood at 391 ng·h/mL and the “NK cell count decrease at about 60% efficacy (inhibition of paw swelling)” value is listed as “about 80%”.
